From patent US9453062B2, “Glucose dependent insulinotropic polypeptide analogs, pharmaceutical compositions and use thereof” (Beijing Hanmi Pharmaceutical Co., Ltd., priority 2011, dated 2016) come the findings set out here.

SMILES strings stand for the structures. Read-outs that look alike come from different tables or passages of the source. *1 amine or outer side, *2 acyl side, *3 side chain or, on linkers, in order; H or OH if unused. Where a SMILES comes first, the peptide text is derived from it. Bridges are numbered along the chain shown (N, C = ends). Side-chain parts run from the residue outwards. [ ]: non-standard residue; d: D form. The star is where a group is joined. γGlu = O=C(O)[C@H](CCC(=O)[*:2])N[*:1]; Palmitoyl = CCCCCCCCCCCCCCCC(=O)*; Aib = CC(C)(N)C(=O)O

One experiment addresses T1, hGLP-1R (Homo sapiens, UniProt P43220).
T1 construct: expressed in transfected cells; host or cells: CHO
Briefly: hGLP-1R-mediated cAMP induction assay in CHO cell line.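 Note: CHO cells expressing human GLP-1R, treated 30 min at 37 °C, intracellular cAMP measured by competitive fluorescent immunoassay and converted via a cAMP standard curve.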 In kind it is cell-based.

The next experiment concerns the target T2, hGIPR (Homo sapiens, UniProt P48546).
T2 construct: expressed in transfected cells; host or cells: CHO
T2 sequence (P48546 22-466): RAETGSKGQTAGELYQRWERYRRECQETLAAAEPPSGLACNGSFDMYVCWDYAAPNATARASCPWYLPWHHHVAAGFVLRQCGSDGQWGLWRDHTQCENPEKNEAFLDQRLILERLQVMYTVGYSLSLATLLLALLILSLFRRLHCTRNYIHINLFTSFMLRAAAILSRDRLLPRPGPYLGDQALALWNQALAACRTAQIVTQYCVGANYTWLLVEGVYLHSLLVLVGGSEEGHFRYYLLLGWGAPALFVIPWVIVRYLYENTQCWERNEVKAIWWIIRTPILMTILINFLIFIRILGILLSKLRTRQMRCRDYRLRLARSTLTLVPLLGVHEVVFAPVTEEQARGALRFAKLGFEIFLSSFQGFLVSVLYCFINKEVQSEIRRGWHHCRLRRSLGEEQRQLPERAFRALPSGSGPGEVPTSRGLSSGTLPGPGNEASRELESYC
Briefly: hGIPR-mediated cAMP induction assay in CHO cell line. In kind it is cell-based.

Usually EC50 stands for the concentration needed to bring the measured effect to its halfway point.

T1 sequence (P43220 24-463): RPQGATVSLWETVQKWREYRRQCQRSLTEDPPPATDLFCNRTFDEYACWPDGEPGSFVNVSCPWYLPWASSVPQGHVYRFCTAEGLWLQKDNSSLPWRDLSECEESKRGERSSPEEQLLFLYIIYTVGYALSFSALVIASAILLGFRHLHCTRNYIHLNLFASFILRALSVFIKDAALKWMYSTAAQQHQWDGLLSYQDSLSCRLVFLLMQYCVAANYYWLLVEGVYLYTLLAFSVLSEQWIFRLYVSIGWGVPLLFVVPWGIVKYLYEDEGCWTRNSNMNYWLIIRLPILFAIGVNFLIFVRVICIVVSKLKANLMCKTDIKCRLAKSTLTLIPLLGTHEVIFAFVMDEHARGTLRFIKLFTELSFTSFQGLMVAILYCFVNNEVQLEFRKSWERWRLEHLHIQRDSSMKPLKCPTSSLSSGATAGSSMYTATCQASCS
Source text for hGIPR: The cAMP in the sample or standard competes with horseradish peroxidase (HRP)-labeled cAMP conjugate for binding sites on the anti-cAMP antibodies. In the absence of cAMP, most of the HRP-cAMP conjugate is bound to the antibody. Increasing concentrations of cAMP competitively decrease the amount of bound conjugate, thus decreasing measured HRP activity.
Assay kit: CatchPoint™ Cyclic-AMP Fluorescent Assay Kit (Molecular Devices, Product # R8088)
Cell lines: CHO hGLP1R, CHO hGIPR
Cell seeding: CHO hGLP1R or CHO hGIPR cells: 10,000 cells/well/100 uL at 37° C. 5% CO2 overnight.
Gently aspirate off media and wash the cells with KRBG Buffer, 100 uL/well.
Incubate the plate for 10 min at room temperature. Then add the KRBG buffer with 3× final concentration of the tested samples (5-foled series diluted from 5,000 nM), 50 uL/well. Incubate the plate at 37° C. 5% CO2 for 30 min.
Add 50 uL of Lysis buffer to each well and put the plate on a shaker for 10 min.
Place 40 uL of samples and analyze in appropriate wells. And test the cAMP concentration in each sample by following the manufacture's instruction.
Detect the fluorescence signal at Ex: 490 nm and Em: 530 nm. Transfer the FI signal to cAMP concentration by the cAMP standard curve. The Dose-response curve and EC50 were obtained by logistic fitting of Origin 8.

Consider `CCCCCCCCCCCCCCCC(=O)NCCCC[C@H](NC(=O)CNC(=O)[C@H](CCCCN)NC(=O)[C@@H](NC(=O)[C@H](CC(C)C)NC(=O)[C@H](Cc1c[nH]c2ccccc12)NC(=O)[C@H](C)NC(=O)[C@@H](NC(=O)[C@H](Cc1ccccc1)NC(=O)[C@H](CCC(=O)O)NC(=O)[C@H](CCCNC(=N)N)NC(=O)[C@@H](NC(=O)[C@H](C)NC(=O)[C@H](CCC(=O)O)NC(=O)[C@@H]1CCCCNC(=O)CC[C@H](NC(=O)[C@H](CO)NC(=O)[C@H](Cc2ccc(O)cc2)NC(=O)[C@H](CC(=O)O)NC(=O)[C@H](CO)NC(=O)[C@@H](NC(=O)[C@H](Cc2ccccc2)NC(=O)[C@@H](NC(=O)CNC(=O)[C@H](CCC(=O)O)NC(=O)C(C)(C)NC(=O)[C@@H](N)Cc2ccc(O)cc2)[C@@H](C)O)[C@@H](C)O)C(=O)N[C@@H](Cc2ccc(O)cc2)C(=O)N[C@@H](CCSC)C(=O)N[C@@H](CCC(=O)O)C(=O)N1)C(C)C)[C@@H](C)CC)C(C)C)C(N)=O` [Compound 084] (H-Y[Aib]EGTFTSDYSEYMEKEAVREFIAWLVKGK(Palmitoyl)-NH2; lactam 12-16), for which the “GLP-1 Receptor Relative Potency” value at hGLP-1R (Table 3, against native GLP-1) worked out at 22.2. Moreover, at hGIPR (Table 3, against native GIP), the “GIP Receptor Relative Potency” value was 8.8.
With `CCCCCCCCCCCCCCCC(=O)N[C@@H](CCC(=O)N[C@@H](CCC(=O)NCCCC[C@H](NC(=O)[C@H](CO)NC(=O)[C@@H]1CCCN1C(=O)[C@@H]1CCCN1C(=O)[C@@H]1CCCN1C(=O)[C@H](C)NC(=O)CNC(=O)[C@H](CO)NC(=O)[C@H](CO)NC(=O)[C@@H]1CCCN1C(=O)CNC(=O)CNC(=O)[C@H](CCCCN)NC(=O)[C@@H](NC(=O)[C@H](CC(C)C)NC(=O)[C@H](Cc1c[nH]c2ccccc12)NC(=O)[C@H](C)NC(=O)[C@@H](NC(=O)[C@H](Cc1ccccc1)NC(=O)[C@H](CCC(=O)O)NC(=O)[C@H](CCCNC(=N)N)NC(=O)[C@@H](NC(=O)[C@H](C)NC(=O)[C@H](CCC(=O)O)NC(=O)[C@H](CCCCN)NC(=O)[C@H](CCC(=O)O)NC(=O)[C@H](CCSC)NC(=O)[C@H](Cc1ccc(O)cc1)NC(=O)[C@@H](NC(=O)[C@H](CO)NC(=O)[C@H](Cc1ccc(O)cc1)NC(=O)[C@H](CC(=O)O)NC(=O)[C@H](CO)NC(=O)[C@@H](NC(=O)[C@H](Cc1ccccc1)NC(=O)[C@@H](NC(=O)CNC(=O)[C@H](CCC(=O)O)NC(=O)C(C)(C)NC(=O)[C@@H](N)Cc1ccc(O)cc1)[C@@H](C)O)[C@@H](C)O)[C@@H](C)CC)C(C)C)[C@@H](C)CC)C(C)C)C(N)=O)C(=O)O)C(=O)O` [Compound 091], the EC50 on hGLP-1R (Table 3, CHO hGLP1R cells) is 0.116 nM; at hGIPR (Table 3, CHO hGIPR cells), 0.041 nM. Moreover, the “GLP-1 Receptor Relative Potency” value on hGLP-1R (Table 3, against native GLP-1) came out at 921.5. In addition, the “GIP Receptor Relative Potency” value at hGIPR (Table 3, against native GIP) worked out at 287.8.
In the case of `CC[C@H](C)[C@H](NC(=O)[C@H](Cc1ccccc1)NC(=O)[C@H](CCC(=O)O)NC(=O)[C@H](CCCCN)NC(=O)[C@H](C)NC(=O)[C@H](C)NC(=O)[C@H](CCC(N)=O)NC(=O)[C@H](CCCCN)NC(=O)[C@H](CCC(=O)O)NC(=O)[C@H](CCSC)NC(=O)[C@H](Cc1ccc(O)cc1)NC(=O)[C@@H](NC(=O)[C@H](CO)NC(=O)[C@H](Cc1ccc(O)cc1)NC(=O)[C@H](CC(=O)O)NC(=O)[C@H](CO)NC(=O)[C@@H](NC(=O)[C@H](Cc1ccccc1)NC(=O)[C@@H](NC(=O)CNC(=O)[C@H](CCC(=O)O)NC(=O)C(C)(C)NC(=O)[C@@H](N)Cc1ccc(O)cc1)[C@@H](C)O)[C@@H](C)O)[C@@H](C)CC)C(=O)N[C@@H](C)C(=O)N[C@@H](Cc1c[nH]c2ccccc12)C(=O)N[C@@H](CC(C)C)C(=O)N[C@H](C(=O)N[C@@H](CCCCN)C(=O)NCC(N)=O)C(C)C` [Compounds 025] (H-Y[Aib]EGTFTSDYSIYMEKQAAKEFIAWLVKG-NH2; N-terminus assumed), the EC50 on hGLP-1R (Table 1, CHO/hGLP-1R cells, read-out: GLP-1R EC50) turned out to be 0.837 nM; on hGIPR (Table 1, CHO/hGIPR cells, read-out: GIPR EC50) it was 1.5 nM. Also, the “GLP-1R Relative Potency” value at hGLP-1R (Table 1, against native GLP-1) came out at 131%. The “GLP-1 Receptor Relative Potency” value at hGLP-1R (Table 3, against native GLP-1) stood at 131. For the same compound, the “GIPR Relative Potency” value at hGIPR (Table 1, against native GIP) is 33.3%. In addition, the “GIP Receptor Relative Potency” value on hGIPR (Table 3, against native GIP) came to 33.3.
Take `CCCCCCCCCCCCCCCC(=O)N[C@@H](CCC(=O)NCCCC[C@H](NC(=O)[C@@H](NC(=O)[C@H](C)NC(=O)[C@H](CCC(=O)O)NC(=O)[C@H](CCCCN)NC(=O)[C@H](CCC(=O)O)NC(=O)[C@H](CCSC)NC(=O)[C@H](Cc1ccc(O)cc1)NC(=O)[C@@H](NC(=O)[C@H](CO)NC(=O)[C@H](Cc1ccc(O)cc1)NC(=O)[C@H](CC(=O)O)NC(=O)[C@H](CO)NC(=O)[C@@H](NC(=O)[C@H](Cc1ccccc1)NC(=O)[C@@H](NC(=O)CNC(=O)[C@H](CCC(=O)O)NC(=O)C(C)(C)NC(=O)[C@@H](N)Cc1ccc(O)cc1)[C@@H](C)O)[C@@H](C)O)[C@@H](C)CC)C(C)C)C(=O)N[C@@H](CCC(=O)O)C(=O)N[C@@H](Cc1ccccc1)C(=O)N[C@H](C(=O)N[C@@H](C)C(=O)N[C@@H](Cc1c[nH]c2ccccc12)C(=O)N[C@@H](CC(C)C)C(=O)N[C@H](C(=O)N[C@@H](CCCCN)C(=O)NCC(=O)NCC(=O)N1CCC[C@H]1C(=O)N[C@@H](CO)C(=O)N[C@@H](CO)C(=O)NCC(=O)N[C@@H](C)C(=O)N1CCC[C@H]1C(=O)N1CCC[C@H]1C(=O)N1CCC[C@H]1C(=O)N[C@@H](CO)C(N)=O)C(C)C)[C@@H](C)CC)C(=O)O` [Compound 092] (H-Y[Aib]EGTFTSDYSIYMEKEAVK([γGlu-Palmitoyl])EFIAWLVKGGPSSGAPPPS-NH2): the EC50 at hGLP-1R (Table 3, CHO hGLP1R cells) was found to be 0.39 nM; on hGIPR (Table 3, CHO hGIPR cells), 0.15 nM. In addition, the “GLP-1 Receptor Relative Potency” value at hGLP-1R (Table 3, against native GLP-1) worked out at 256.4. For the same compound, at hGIPR (Table 3, against native GIP), the “GIP Receptor Relative Potency” value amounted to 26.6.
The corresponding values for `CCCCCCCCCCCCCCCC(=O)NCCCC[C@H](NC(=O)[C@H](CO)NC(=O)[C@@H]1CCCN1C(=O)[C@@H]1CCCN1C(=O)[C@@H]1CCCN1C(=O)[C@H](C)NC(=O)CNC(=O)[C@H](CO)NC(=O)[C@H](CO)NC(=O)[C@@H]1CCCN1C(=O)CNC(=O)CNC(=O)[C@@H]1CCCCNC(=O)CC[C@H](NC(=O)[C@@H](NC(=O)[C@H](Cc2ccccc2)NC(=O)[C@H](CCC(=O)O)NC(=O)[C@H](CCCCN)NC(=O)[C@@H](NC(=O)[C@H](C)NC(=O)[C@H](CCC(=O)O)NC(=O)[C@H](CCCCN)NC(=O)[C@H](CCC(=O)O)NC(=O)[C@H](CCSC)NC(=O)[C@H](Cc2ccc(O)cc2)NC(=O)[C@@H](NC(=O)[C@H](CO)NC(=O)[C@H](Cc2ccc(O)cc2)NC(=O)[C@H](CC(=O)O)NC(=O)[C@H](CO)NC(=O)[C@@H](NC(=O)[C@H](Cc2ccccc2)NC(=O)[C@@H](NC(=O)CNC(=O)[C@H](CCC(=O)O)NC(=O)C(C)(C)NC(=O)[C@@H](N)Cc2ccc(O)cc2)[C@@H](C)O)[C@@H](C)O)[C@@H](C)CC)C(C)C)[C@@H](C)CC)C(=O)N[C@@H](Cc2c[nH]c3ccccc23)C(=O)N[C@@H](CC(C)C)C(=O)N[C@@H](C(C)C)C(=O)N1)C(N)=O` [Compound 102] (H-Y[Aib]EGTFTSDYSIYMEKEAVKEFIEWLVKGGPSSGAPPPSK(Palmitoyl)-NH2; lactam 24-28; N-terminus assumed) are 0.069 nM, 0.015 nM, 510.1 and 460.
